Earlier results in patent US20250339446A1 (Kessler Foundation Inc., priority 2016, published 2025).

How the values were obtained:
[1] = system: bone mineral density (BMD); conditions: rat, hind limb unweighting; cited from earlier work
[2] = daily administration; cited from earlier work
BMD in the vertebrae = conditions: men with idiopathic osteoporosis; cited from earlier work
[3] = system: muscle mass, muscle strength, and bone; conditions: androgen-deficient men and older men with low testosterone levels; testosterone alone; cited from earlier work

Structure (SMILES)	immobilization-related decrease in BMD [1]	absorption and elimination after transdermal application [2]	BMD in the vertebrae (BMD in the vertebrae)	muscle mass, muscle strength, and bone [3]
C[C@]12CC[C@H]3[C@@H](CCC4=CC(=O)CC[C@@H]43)[C@@H]1CC[C@@H]2O [nandrolone]	blocked much of the immobilization-related decrease in BMD			
C[C@]12CC[C@H]3[C@@H](CCC4=CC(=O)CC[C@@]43C)[C@@H]1CC[C@@H]2O [testosterone]	blocked much of the immobilization-related decrease in BMD	absorbed and eliminated over the course of a day	increased BMD in the vertebrae	increase muscle mass, muscle strength, and bone
